Patent US20120029177A1, “HETEROCYCLE-AMINO ACID DERIVATIVES FOR TARGETING CANCER TISSUE AND RADIOACTIVE OR NON-RADIOACTIVE LABELED COMPOUNDS THEREOF” (SNU R&DB FOUNDATION, priority 2009, published 2012)

Legend:
U87MG cells = experiment: In vitro cell uptake, U87MG (FIG. 1a); format: cell-based, human; settings: controls ^68Ga-DOTA, ^68Ga-NOTA
Protocol: (§1) Human colon cancer cell line SNU-C4 was purchased from Korea Cell Line Bank (KCLB). Human thyroid cell line ARO, human liver cancer cell line Hep3B, human glioma cell line U251MG and U87MG, and mouse colon cell line CT-26 were purchased from American Type Culture Collection (ATCC). SNU-C4 and ARO were culture in RPMI1640 (Welgene Inc., Korea) and Hep3B, U251 MG, U87MG, and CT-26 were cultured in DMEM (Welgene Inc., Korea). Penicillin, streptomycin and amphotericin B (10,000 IU/mL, 10 mg/mL and 25 μg/mL, respectively, Mediatech Inc., U.S.A.) 1% mixture and fetal bovine serum (Welgene Inc., Korea) were added to all cell culture media. Cell culture was done in 37° C. incubator with supply of 5% CO2.
(§2) About 1.8×10^5 cells/mL CT-26 and 1.2×10^5 cells/mL U87MG were put into 24-well incubation plate and incubated for 20 hr. When the each well was about 80% confluent with cells, 296 kBq/0.5 mL of ^68Ga labeled agent was added to each well. Culture supernatants were discarded at each time point and cells were washed with ice-cooled Hank's balanced salt solution (HBSS, pH7.3, Gibco, U.S.A.) 2 times. The cells were dissolved by 0.5% sodium dodecylsulfate (SDS), recovered and counted using a gamma counter (Packard, Can berra Co., U.S.A.). Total protein amount in each sample was measured by bicinchonic acid (BCA, Pierce, U.S.A.) method.

[1] = tested on: SNU-C4 xenografted nude mice; experiment: PET imaging of tumor xenografted mice; format: in vivo, mouse; settings: PET at 1 and 2 hr post-injection, FIG. 2
Protocol: Human colon cancer cell line SNU-C4 was cultured in RPMI1640 media containing 10% fetal bovine serum and harvested using trypsin. The cells were washed using 10 mL PBS and centrifugation at 3,000 rpm. Each nude mouse was injected with 2×10^5 cells/0.1 mL on the right shoulder subcutaneously. On 14 days post-injection, each 10 μCi/0.1 mL of ^68Ga labeled agent was injected into the xenografted mice through the tail vein. The injected mice were anesthetized using 2% isoflurane, PET images were obtained at 1 and 2 hr post-injection using rodent R4, microPET scanner (Concorde Microsystem Inc.). The images were analyzed using ASIPro software (Concorde Microsystem Inc.).

[2] = tested on: SNU-C4 xenografted nude mice; experiment: Biodistribution study in SNU-C4 xenografted nude mice after intravenous injection; format: in vivo, mouse; settings: for % ID/g Tumor: SNU-C4 tumor; for tumor uptake compared with the control heterocyclic compound (in words): SNU-C4 xenografted nude mice, 10 min to 2 hr
Protocol: Human colon cancer cell line SNU-C4 was cultured in RPMI1640 media containing 10% fetal bovine serum and harvested using trypsin. The cells were washed using 10 mL PBS and centrifugation at 3,000 rpm. Each nude mouse was injected with 2×10^5 cells/0.1 mL on the right shoulder subcutaneously. On 13 days post-injection, each 10 μCi/0.1 mL of ^68Ga labeled agent was injected into the xenografted mice through the tail vein. The injected mice were sacrificed at 10 min, 30 min, 1 hr, and 2 hr, cancer, blood, muscle, heart, liver, spleen, stomach, intestine, and bone were obtained, weighed, and their radioactivities were counted. The results were expressed as percentages of injected dose per gram tissue (% ID/g).

Hep3B cells = experiment: In vitro cell uptake, Hep3B (FIG. 1c); format: cell-based, human; settings: control ^68Ga-NOTA
CT-26 cells = experiment: In vitro cell uptake, CT-26 (FIG. 1b); format: cell-based, mouse; settings: controls ^68Ga-DO2A, ^68Ga-DO3A
Protocol: as §1, §2

[3] = 10 min after intravenous injection
[4] = 30 min after intravenous injection
[5] = 1 hr after intravenous injection
[6] = 2 hr after intravenous injection

NC(CNC(=O)CN1CCN(CC(=O)[O-])CCN(CC(=O)[O-])CC1)C(=O)[O-].[68Ga+3] (stereo not drawn) [^68Ga-NOTA-ala]
tumor cell uptake versus control agents (U87MG cells): significantly increase tumor cell uptakes | PET image quality [1]: the highest quality image | tumor uptake in PET images [1]: high tumor uptakes | % ID/g Tumor [2, 3]: 2.87 ± 0.58 % ID/g | % ID/g Tumor [2, 4]: 1.40 ± 0.43 % ID/g | % ID/g Tumor [2, 5]: 0.73 ± 0.25 % ID/g | % ID/g Tumor [2, 6]: 0.61 ± 0.34 % ID/g | tumor uptake compared with the control heterocyclic compound (in words) [2]: higher and increasing by time | tumor uptake relative to that of ^68Ga-NOTA ([2]; at 10 min): 1.07 times | tumor uptake relative to that of ^68Ga-NOTA ([2]; at 30 min): 1.09 times | tumor uptake relative to that of ^68Ga-NOTA ([2]; at 1 hr): 1.24 times | tumor uptake relative to that of ^68Ga-NOTA ([2]; at 2 hr): 1.42 times | % ID/g Blood [2, 3]: 7.46 ± 0.78 % ID/g | % ID/g Blood [2, 4]: 2.69 ± 0.59 % ID/g | % ID/g Blood [2, 5]: 0.73 ± 0.05 % ID/g | % ID/g Blood [2, 6]: 0.15 ± 0.03 % ID/g | % ID/g Bone [2, 3]: 2.22 ± 0.34 % ID/g | % ID/g Bone [2, 4]: 1.05 ± 0.35 % ID/g | % ID/g Bone [2, 5]: 0.47 ± 0.09 % ID/g | % ID/g Bone [2, 6]: 0.10 ± 0.07 % ID/g | % ID/g Heart [2, 3]: 2.13 ± 0.13 % ID/g | % ID/g Heart [2, 4]: 0.71 ± 0.17 % ID/g | % ID/g Heart [2, 5]: 0.26 ± 0.03 % ID/g | % ID/g Heart [2, 6]: 0.10 ± 0.05 % ID/g | % ID/g Intestine [2, 3]: 1.74 ± 0.22 % ID/g | % ID/g Intestine [2, 4]: 0.77 ± 0.19 % ID/g | % ID/g Intestine [2, 5]: 0.44 ± 0.07 % ID/g | % ID/g Intestine [2, 6]: 0.35 ± 0.11 % ID/g | % ID/g Kidney [2, 3]: 20.96 ± 7.35 % ID/g | % ID/g Kidney [2, 4]: 9.07 ± 1.68 % ID/g | % ID/g Kidney [2, 5]: 5.81 ± 0.57 % ID/g | % ID/g Kidney [2, 6]: 4.04 ± 0.63 % ID/g | % ID/g Liver [2, 3]: 2.08 ± 0.25 % ID/g | % ID/g Liver [2, 4]: 1.34 ± 0.22 % ID/g | % ID/g Liver [2, 5]: 1.05 ± 0.04 % ID/g | % ID/g Liver [2, 6]: 0.84 ± 0.18 % ID/g | % ID/g Muscle [2, 3]: 2.29 ± 0.52 % ID/g | % ID/g Muscle [2, 4]: 0.87 ± 0.33 % ID/g | % ID/g Muscle [2, 5]: 0.26 ± 0.05 % ID/g | % ID/g Muscle [2, 6]: 0.06 ± 0.04 % ID/g | % ID/g Spleen [2, 3]: 1.84 ± 0.10 % ID/g | % ID/g Spleen [2, 4]: 0.93 ± 0.14 % ID/g | % ID/g Spleen [2, 5]: 0.55 ± 0.07 % ID/g | % ID/g Spleen [2, 6]: 0.48 ± 0.11 % ID/g | % ID/g Stomach [2, 3]: 2.46 ± 0.31 % ID/g | % ID/g Stomach [2, 4]: 0.79 ± 0.17 % ID/g | % ID/g Stomach [2, 5]: 0.33 ± 0.08 % ID/g | % ID/g Stomach [2, 6]: 0.18 ± 0.05 % ID/g | tumor cell uptake versus control agents (Hep3B cells): significantly increase tumor cell uptakes

N[C@@H](CN1CCN(CC(=O)[O-])CCN(CC(=O)[O-])CCN(CC(=O)[O-])CC1)C(=O)O.[68Ga+3] (stereo in doubt) [^68Ga-DO3A-ala]
tumor cell uptake versus control agents (CT-26 cells): significantly increase tumor cell uptakes | tumor uptake in PET images [1]: high tumor uptakes | % ID/g Tumor [2, 3]: 3.22 ± 0.90 % ID/g | % ID/g Tumor [2, 4]: 2.49 ± 0.40 % ID/g | % ID/g Tumor [2, 5]: 2.44 ± 0.46 % ID/g | % ID/g Tumor [2, 6]: 2.98 ± 0.58 % ID/g | tumor uptake compared with the control heterocyclic compound (in words) [2]: higher and increasing by time | % ID/g Blood [2, 3]: 11.12 ± 0.49 % ID/g | % ID/g Blood [2, 4]: 8.35 ± 0.29 % ID/g | % ID/g Blood [2, 5]: 7.97 ± 1.29 % ID/g | % ID/g Blood [2, 6]: 6.07 ± 1.13 % ID/g | % ID/g Bone [2, 3]: 4.06 ± 0.44 % ID/g | % ID/g Bone [2, 4]: 3.63 ± 0.49 % ID/g | % ID/g Bone [2, 5]: 4.73 ± 0.69 % ID/g | % ID/g Bone [2, 6]: 5.00 ± 2.41 % ID/g | % ID/g Heart [2, 3]: 2.70 ± 0.18 % ID/g | % ID/g Heart [2, 4]: 1.80 ± 0.22 % ID/g | % ID/g Heart [2, 5]: 1.69 ± 0.40 % ID/g | % ID/g Heart [2, 6]: 1.30 ± 0.40 % ID/g | % ID/g Intestine [2, 3]: 2.48 ± 0.13 % ID/g | % ID/g Intestine [2, 4]: 1.74 ± 0.14 % ID/g | % ID/g Intestine [2, 5]: 1.87 ± 0.33 % ID/g | % ID/g Intestine [2, 6]: 4.38 ± 1.14 % ID/g | % ID/g Kidney [2, 3]: 60.06 ± 14.07 % ID/g | % ID/g Kidney [2, 4]: 9.10 ± 2.19 % ID/g | % ID/g Kidney [2, 5]: 4.82 ± 0.99 % ID/g | % ID/g Kidney [2, 6]: 6.06 ± 2.27 % ID/g | % ID/g Liver [2, 3]: 2.58 ± 0.07 % ID/g | % ID/g Liver [2, 4]: 2.30 ± 0.13 % ID/g | % ID/g Liver [2, 5]: 2.35 ± 0.25 % ID/g | % ID/g Liver [2, 6]: 2.52 ± 0.41 % ID/g | % ID/g Lung [2, 3]: 13.60 ± 2.37 % ID/g | % ID/g Lung [2, 4]: 9.35 ± 1.00 % ID/g | % ID/g Lung [2, 5]: 8.40 ± 1.17 % ID/g | % ID/g Lung [2, 6]: 8.04 ± 0.83 % ID/g | % ID/g Muscle [2, 3]: 3.52 ± 0.42 % ID/g | % ID/g Muscle [2, 4]: 2.03 ± 0.41 % ID/g | % ID/g Muscle [2, 5]: 1.38 ± 0.39 % ID/g | % ID/g Muscle [2, 6]: 1.33 ± 0.48 % ID/g | % ID/g Spleen [2, 3]: 2.59 ± 0.30 % ID/g | % ID/g Spleen [2, 4]: 2.33 ± 0.15 % ID/g | % ID/g Spleen [2, 5]: 2.33 ± 0.44 % ID/g | % ID/g Spleen [2, 6]: 2.19 ± 0.35 % ID/g | % ID/g Stomach [2, 3]: 1.97 ± 0.18 % ID/g | % ID/g Stomach [2, 4]: 1.53 ± 0.17 % ID/g | % ID/g Stomach [2, 5]: 1.53 ± 0.37 % ID/g | % ID/g Stomach [2, 6]: 11.42 ± 5.04 % ID/g
